Measured values taken from patent US9051351B2, “Hepatocyte growth factor mimics as therapeutic agents” (Washington State University, priority 2011, dated 2015).
“Also recorded” adds a separate entry of the source. Where a SMILES comes first, the peptide text is derived from it. [ ]: non-standard residue; d: D form. The star is where a group is joined. Hexanoyl = CCCCCC(=O)*; Ahx = NCCCCCC(=O)O

Key:
CA1 hippocampal neurons = experiment: Spinogenesis in organotypic hippocampal slice cultures; format: cell-based, rat; details: 10^−12 M Nle1-AngIV or Dihexa, 10 ng/ml HGF; 2 days
Procedure: Hippocampi from P4 Sprague Dawley rats were cultured as previously described (Wayman, hnpey et al. 2006). Briefly, 400 μm slices were cultured on (Milipore, Billerica, Mass.) for 3 days after which they were biolistically transfected with tomato fluorescent protein (TFP) using a Helios Gen Gun (BioRad, Hercules, Calif.), according to the manufacturer's protocol, to visualize dendritic arbors. Following a 24 hour recovery period slices were stimulated with vehicle (H2O), 1 pM Nle1-AngIV or Dihexa for 2 days. Slices were fixed and mounted. Hippocampal CA1 neuronal processes were imaged and measured as described above.
Hippocampi from P4 Sprague Dawley rats were cultured as previously described (Wayman, Impey et al. 2006). Briefly, 400 μm slices were cultured on (Milipore, Billerica, Mass.) for 3 days after which they were biolistically transfected with tomato fluorescent protein (TFP) using a Helios Gene Gun (BioRad, Hercules, Calif.), according to the manufacturer's protocol, to visualize dendritic arbors. Following a 24 hour recovery period slices were stimulated with 1 pM Nle1-AngIV or Dihexa for 2 days. […] Hippocampal CA1 neuronal processes were imaged and measured as described above.
Hippocampi from P4 Sprague Dawley rats were cultured as previously described (Wayman, Impey et al. 2006). […] Hippocampal CA1 neuronal processes were imaged and measured as described above.

c-Met = experiment: Augmentation of HGF-dependent c-Met phosphorylation in HEK293 cells; format: cell-based, human; details: HEK 293 cells, HGF+/−Dihexa, 30 minutes
Procedure: HGF mimetic activity was typically assessed by one or both of two methods: augmentation of HGF-dependent c-Met phosphorylation in HEK293 cells, or 2) augmentation of HGF-dependent cell scattering in MDCK cells. All the compounds in Family one were tested using the c-Met phosphorylation assay. […]
Human embryonic kidney cells 293 (HEK293), Madin Darby canine kidney cells (MDCK), and B16F10 murine melanoma cells were grown in DMEM, 10% fetal bovine serum (FBS). Cells were grown to 90-100% confluency before use. For most but not all studies HEK and MDCK cells were serum starved for 24 hours prior to the initiation of drug treatment.
HEK293 cells were seeded in 6 well tissue culture plates and grown to 95% confluency in DMEM containing 10% FBS. […] The lysate was clarified by centrifugation at 15,000 g for 15 minutes, protein concentrations were determined using the BCA total protein assay, and then appropriate volumes of the lysates were diluted with 2× reducing Laemmli buffer and heated for ten minutes at 95° C. […] Proteins were visualized using the Supersignal West Pico Chemiluminescent Substrate system (Pierce, Fenton, Mo.) and molecular weights determined by comparison to protein ladders (BenchMark, Invitrogen; and Kaleidoscope, BioRad). Images were digitized and analyzed using a UVP phosphoimager.

[1] = Blood-brain barrier penetrability study; format: in vivo, rat; details: carotid infusion, 30 minutes
Procedure: To evaluate the of ability dihexa to penetrate the BBB and accumulate in the brain rats were fitted with carotid cannulas and infused with 10 μCi of ^3H-dihexa and 2 μCi of ^14C inulin, a vascular space marker, in 100 μL of isotonic saline. Thirty minutes after infusion, brains were removed and dissected and blood samples taken. After solubilization, ^3H and ^14C were quantified by dual window scintillation counting to determine the amount of dihexa and inulin in brain and blood samples. The ratio of dihexa/inulin in blood was then used to account for any blood contamination in the various brain regions.

in vitro = details: male, rat, microsomes, pH 7.38

For `CCCCCC(=O)N[C@@H](Cc1ccc(O)cc1)C(=O)N[C@H](C(=O)NCCCCCC(N)=O)[C@@H](C)CC` [Dihexa, N-hexanoic-Tyr-Ile-(6)-aminohexanoic amide] (Hexanoyl-Tyr-Ile-[Ahx]-NH2), the “spines per 50 μm dendrite length in CA1 hippocampal neurons” value (CA1 hippocampal neurons) was 11 spines per 50 μm dendrite length, the “augmentation of HGF activation (phosphorylation) of c-Met” value (c-Met) was “dramatically augment the ability of HGF to activate c-Met; also recorded: markedly augments the ability of HGF to signal to c-Met; also recorded: work synergistically to activate c-Met” and the “average 3H/14C for blood” value [1] was 1687. For the same molecule, the “concentration of 3H-dihexa in brain regions (3H/14C ratio vs blood)” value ([1]; 14C-inulin vascular marker) was “all the brain regions examined avidly concentrated dihexa”, the half-life at 5 µM (in vitro) was 8.49 h and the microsomal CLint at 5 µM (in vitro) was 2.72 µL/min/mg.
